In patent EP0183129A1, “Quinolonecarboxylic acid derivatives” (KYORIN PHARMACEUTICAL CO., LTD., priority 1984, dated 1986):
Converted amounts (≈) assume the structure as drawn. Read-outs that look alike come from different tables or passages of the source.

Columns and labels:
[1] = test system: Citrobacter freundii IID 976; assay: In vitro antibacterial activity, MIC (standard strain); type: cell-based; settings: IID976; Citrobacter freundii IID 976; 10^6 cells/ml; standard strain; read-out: MIC
[2] = test system: Proteus vulgaris IFO 3167; assay: as above; type: cell-based; settings: IFO3167; Proteus vulgaris IFO 3167; 10^6 cells/ml; standard strain; read-out: MIC
[3] = test system: C. ramosum; assay: as above; type: cell-based; settings: Thomasclavelia ramosa; C. ramosum; 10^6 cells/ml; standard strain; read-out: MIC
[4] = test system: Klebsiella pneumoniae KY(GN)6445; assay: as above; type: cell-based; settings: Klebsiella pneumoniae KY(GN)6445; 10^6 cells/ml; standard strain; read-out: MIC
[5] = test system: S. agalactiae 4049; assay: In vitro antibacterial activity, MIC (clinical isolates); type: cell-based; settings: Streptococcus agalactiae; S. agalactiae 4049; 10^6 cells/ml; clinical isolate; read-out: MIC
[6] = test system: Pseudomonas aeruginosa V-1; assay: In vitro antibacterial activity, MIC (standard strain); type: cell-based; settings: V1; Pseudomonas aeruginosa V-1; 10^6 cells/ml; standard strain; read-out: MIC
[7] = test system: Escherichia coli NIHJ JC-2; assay: as above; type: cell-based; settings: Escherichia coli, NIHJJC2, Escherichia coli NIHJ JC-2; 10^6 cells/ml; standard strain; read-out: MIC
[8] = test system: S. pyogenes 4372; assay: In vitro antibacterial activity, MIC (clinical isolates); type: cell-based; settings: Streptococcus pyogenes
[9] = test system: P. mirabilis IID 994; assay: In vitro antibacterial activity, MIC (standard strain); type: cell-based; settings: Proteus mirabilis, IID994; P. mirabilis IID 994; 10^6 cells/ml; standard strain; read-out: MIC
[10] = test system: Fusobacterium varium KYA 8501; assay: as above; type: cell-based; settings: Fusobacterium varium, KYA8501, Fusobacterium varium KYA 8501; 10^6 cells/ml; standard strain; read-out: MIC
[11] = test system: S. faecalis 401; assay: In vitro antibacterial activity, MIC (clinical isolates); type: cell-based; settings: Enterococcus faecalis; S. faecalis 401; 10^6 cells/ml; clinical isolate; read-out: MIC
[12] = test system: S. agalactiae 4394; assay: as above; type: cell-based; settings: Streptococcus agalactiae; S. agalactiae 4394; 10^6 cells/ml; clinical isolate; read-out: MIC
[13] = test system: Alcaligenes faecalis 0104002; assay: In vitro antibacterial activity, MIC (standard strain); type: cell-based; settings: Alcaligenes faecalis, 0104002, Alcaligenes faecalis 0104002; 10^6 cells/ml; standard strain; read-out: MIC
[14] = test system: K. pneumoniae 1-220S; assay: as above; type: cell-based; settings: Klebsiella pneumoniae, 1220S; K. pneumoniae 1-220S; 10^6 cells/ml; standard strain; read-out: MIC
[15] = test system: E. coli ML 4707; assay: as above; type: cell-based; settings: Escherichia coli, ML4707; E. coli ML 4707; 10^6 cells/ml; standard strain; read-out: MIC
[16] = test system: P. aeruginosa IID 1210; assay: as above; type: cell-based; settings: Pseudomonas aeruginosa, IID1210; P. aeruginosa IID 1210; 10^6 cells/ml; standard strain; read-out: MIC
[17] = test system: Staphylococcus aureus 209 P; assay: as above; type: cell-based; settings: Staphylococcus aureus 209 P; 10^6 cells/ml; standard strain; read-out: MIC
[18] = test system: S. agalactiae 4368; assay: In vitro antibacterial activity, MIC (clinical isolates); type: cell-based; settings: Streptococcus agalactiae; S. agalactiae 4368; 10^6 cells/ml; clinical isolate; read-out: MIC
[19] = test system: S. pyogenes 3130; assay: as above; type: cell-based; settings: Streptococcus pyogenes
[20] = test system: S. pyogenes 3102; assay: as above; type: cell-based; settings: Streptococcus pyogenes
[21] = test system: Bacillus subtilis PCI 219; assay: In vitro antibacterial activity, MIC (standard strain); type: cell-based; settings: PCI219; Bacillus subtilis PCI 219; 10^6 cells/ml; standard strain; read-out: MIC
[22] = test system: S. epidermidis IID 866; assay: as above; type: cell-based; settings: Staphylococcus epidermidis, IID866, S. epidermidis IID 866; 10^6 cells/ml; standard strain; read-out: MIC
[23] = test system: E. coli ML4707; assay: In vivo antibacterial activity against systemic infection in mice; parameters: species or system mice (ICR-S); settings: for ED50: Escherichia coli, ML4707, mice (ICR-S), oral, an hour after intraperitoneal infection, challenge dose 2.7 x 10^6 ~ 8.8 x 10^6 cfu/mouse, read-out: ED50 E. coli ML4707
Description: (§1) Experiment-2 In vivo antibacterial activity against systemic infection in mice (ICR-S)
(§2) The infections were produced by intraperitoneal injection of a suspension of the bacterial culture corresponding to the germ studied. The products were administered orally at an hour after the infection.

[24] = test system: Serratia marcescens IID 618; assay: In vitro antibacterial activity, MIC (standard strain); type: cell-based; settings: Serratia marcescens, IID618, Serratia marcescens IID 618; 10^6 cells/ml; standard strain; read-out: MIC
[25] = test system: B. fragilis 25285; assay: as above; type: cell-based, Bacteroides fragilis; settings: Bacteroides fragilis, 25285, B. fragilis 25285; 10^6 cells/ml; standard strain; read-out: MIC
[26] = test system: S. pneumoniae 24; assay: In vitro antibacterial activity, MIC (clinical isolates); type: cell-based; settings: Streptococcus pneumoniae, 24
[27] = test system: S. pneumoniae S-4288; assay: In vivo antibacterial activity against systemic infection in mice; parameters: species or system mice (ICR-S); settings: Streptococcus pneumoniae, S4288; mice (ICR-S); oral, an hour after intraperitoneal infection; challenge dose 7.5 x 10^4 ~ 4.8 x 10^6 cfu/mouse; read-out: ED50 S. pneumoniae S-4288
Description: as §1, §2

[28] = test system: S. aureus Smith; assay: as above; parameters: species or system mice (ICR-S); settings: Staphylococcus aureus, po, mice (ICR-S), an hour after intraperitoneal infection, challenge dose 6.0 x 10^5 cfu/mouse, read-out: ED50 S. aureus Smith
Description: as §1, §2

[29] = S. pyogenes 4372, 10^6 cells/ml, clinical isolate, read-out: MIC
[30] = S. pyogenes 3102, 10^6 cells/ml, clinical isolate, read-out: MIC

SMILES	MIC [1] [µg/mL]	MIC [2] [µg/mL]	MIC [3] [µg/mL]	MIC [4] [µg/mL]	MIC [5] [µg/mL]	MIC [6] [µg/mL]	MIC [7] [µg/mL]	MIC [9] [µg/mL]	MIC [10] [µg/mL]	MIC [11] [µg/mL]	MIC [12] [µg/mL]	MIC [13] [µg/mL]	MIC [14] [µg/mL]	MIC [15] [µg/mL]	MIC [16] [µg/mL]	MIC [17] [µg/mL]	MIC [18] [µg/mL]	MIC [21] [µg/mL]	MIC [22] [µg/mL]	MIC [24] [µg/mL]	other results
CN(C)CC1CCN(c2c(F)cc3c(=O)c(C(=O)O)cn(C4CC4)c3c2Cl)C1 (stereo not drawn) [Example 20, 8-Chloro-1-cyclopropyl-6-fluoro-1,4-dihydro-7-(3-dimethylaminomethyl-l-pyrrolidinyl)-4-oxo-3-quinolinecarboxylic acid]	0.05 (≈ 0.123 µM)	0.05 (≈ 0.123 µM)	0.39 (≈ 0.956 µM)	0.05 (≈ 0.123 µM)	0.1 (≈ 0.245 µM)	0.39 (≈ 0.956 µM)	0.025 (≈ 0.0613 µM)	0.05 (≈ 0.123 µM)	0.78 (≈ 1.91 µM)	0.1 (≈ 0.245 µM)	0.2 (≈ 0.49 µM)	0.39 (≈ 0.956 µM)	0.1 (≈ 0.245 µM)	0.05 (≈ 0.123 µM)	1.56 (≈ 3.82 µM)	0.025 (≈ 0.0613 µM)	0.05 (≈ 0.123 µM)	0.025 (≈ 0.0613 µM)	0.05 (≈ 0.123 µM)	0.1 (≈ 0.245 µM)	MIC [8, 29]: 0.1 µg/mL (≈ 0.245 µM); MIC ([19]; read-out: MIC): 0.05 µg/mL (≈ 0.123 µM); MIC [20, 30]: 0.05 µg/mL (≈ 0.123 µM); ED50 [23]: 2.1 mg/kg; MIC [25]: ≤ 0.05 µg/mL
CN(C)CC1CCN(c2c(F)cc3c(=O)c(C(=O)O)cn(C4CC4)c3c2F)C1 (stereo not shown) [Example 21, 1-Cyclopropyl-6,8-difluoro-1,4-dihydro-7-(3-dimethylaminomethyl-1-pyrrolidinyl)-4-oxo-3-quinolinecarboxylic acid]	0.05 (≈ 0.128 µM)	0.05 (≈ 0.128 µM)	0.78 (≈ 1.99 µM)	0.05 (≈ 0.128 µM)	0.2 (≈ 0.511 µM)	0.39 (≈ 0.996 µM)	0.05 (≈ 0.128 µM)	0.1 (≈ 0.255 µM)	3.13 (≈ 8 µM)	0.2 (≈ 0.511 µM)	0.2 (≈ 0.511 µM)	0.78 (≈ 1.99 µM)	0.2 (≈ 0.511 µM)	0.05 (≈ 0.128 µM)	3.13 (≈ 8 µM)	0.05 (≈ 0.128 µM)	0.2 (≈ 0.511 µM)	0.05 (≈ 0.128 µM)	0.05 (≈ 0.128 µM)	0.2 (≈ 0.511 µM)	MIC [8, 29]: 0.2 µg/mL (≈ 0.511 µM); MIC ([19]; read-out: MIC): 0.1 µg/mL (≈ 0.255 µM); MIC [20, 30]: 0.1 µg/mL (≈ 0.255 µM); ED50 [23]: 1.2 mg/kg; activity against gram-negative bacterial infections compared with the reference compounds ([23]; systemic infection in mice, result in words): greater activity against gram-negative bacterial infections than the reference compounds; MIC [25]: 0.2 µg/mL (≈ 0.511 µM)
CCn1cc(C(=O)O)c(=O)c2cc(F)c(N3CCNCC3)cc21 [NFLX, Norfloxacin, reference compound]	0.05 (≈ 0.157 µM)	0.025 (≈ 0.0783 µM)	50 (≈ 157 µM)	0.05 (≈ 0.157 µM)	6.25 (≈ 19.6 µM)	0.78 (≈ 2.44 µM)	0.025 (≈ 0.0783 µM)	0.05 (≈ 0.157 µM)	100 (≈ 313 µM)	6.25 (≈ 19.6 µM)	6.25 (≈ 19.6 µM)	3.13 (≈ 9.8 µM)	0.2 (≈ 0.626 µM)	0.05 (≈ 0.157 µM)	3.13 (≈ 9.8 µM)	0.78 (≈ 2.44 µM)	3.13 (≈ 9.8 µM)	0.1 (≈ 0.313 µM)	0.39 (≈ 1.22 µM)	0.05 (≈ 0.157 µM)	MIC [8]; 4372: 1.56 µg/mL (≈ 4.89 µM); MIC [26]: 12.5 µg/mL (≈ 39.1 µM); MIC [19]: 1.56 µg/mL (≈ 4.89 µM); MIC [20]; 3102: 1.56 µg/mL (≈ 4.89 µM); MIC [25]: 25 µg/mL (≈ 78.3 µM)
CCNCC1CCN(c2c(F)cc3c(=O)c(C(=O)O)cn(CC)c3c2F)C1 (stereo not shown) [Ref.1, 1-Ethyl-7-(3-ethylaminomethyl-1-pyrrolidinyl)-6,8-difluoro-1,4-dihydro-4-oxo-3-quinolinecarboxylic acid, reference compound]	0.2 (≈ 0.527 µM)	0.05 (≈ 0.132 µM)	6.25 (≈ 16.5 µM)	0.2 (≈ 0.527 µM)	0.39 (≈ 1.03 µM)	6.25 (≈ 16.5 µM)	0.1 (≈ 0.264 µM)	0.2 (≈ 0.527 µM)	6.25 (≈ 16.5 µM)	0.39 (≈ 1.03 µM)	0.78 (≈ 2.06 µM)	12.5 (≈ 32.9 µM)	0.39 (≈ 1.03 µM)	0.1 (≈ 0.264 µM)	12.5 (≈ 32.9 µM)	0.05 (≈ 0.132 µM)	0.2 (≈ 0.527 µM)	0.05 (≈ 0.132 µM)	0.1 (≈ 0.264 µM)	0.39 (≈ 1.03 µM)	MIC [8, 29]: 0.2 µg/mL (≈ 0.527 µM); MIC ([19]; read-out: MIC): 0.2 µg/mL (≈ 0.527 µM); MIC [20, 30]: 0.2 µg/mL (≈ 0.527 µM); ED50 [23]: > 10 mg/kg; ED50 [27]: 62.2 mg/kg; ED50 [28]: 5 mg/kg; MIC [25]: 6.25 µg/mL (≈ 16.5 µM)
